Assay results reported in ChEMBL document CHEMBL1201862, “PubChem BioAssay data set” (2004).
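Each compound was tested at five concentrations against cells in 96-well plates for 48 hours. GI50 is the concentration that inhibits growth by half.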 Active and inactive are the calls of the source. No stated cut-off is given here; in the data, active = GI50 up to about 1.1 µM and inactive = higher.

Legend:
Assay in all cases: NCI anticancer screen, dose series, 48 h
786-0 = system: 786-0
A498 = system: A498
A549 = system: A549
ACHN = system: ACHN
CCRF-CEM = system: CCRF-CEM
DLD-1 = system: DLD-1
DMS-114 = system: DMS-114
EKVX = system: EKVX
HCC 2998 = system: HCC 2998
HCT-116 = system: HCT-116
HCT-15 = system: HCT-15
HL-60 = system: HL-60
HOP-18 = system: HOP-18
HOP-92 = system: HOP-92
HT-29 = system: HT-29
IGROV-1 = system: IGROV-1
K562 = system: K562
KM-20L2 = system: KM-20L2
KM12 = system: KM12
LOX IMVI = system: LOX IMVI
LXFL 529 = system: LXFL 529
M14 = system: M14
M19-MEL = system: M19-MEL
MOLT-4 = system: MOLT-4
Malme-3M = system: Malme-3M
NCI-H23 = system: NCI-H23
NCI-H460 = system: NCI-H460
NCI-H522 = system: NCI-H522
OVCAR-3 = system: OVCAR-3
OVCAR-5 = system: OVCAR-5
OVCAR-8 = system: OVCAR-8
RPMI-8226 = system: RPMI-8226
RXF 393 = system: RXF 393
RXF 631 = system: RXF 631
SF-268 = system: SF-268
SF-295 = system: SF-295
SF-539 = system: SF-539
SK-MEL-28 = system: SK-MEL-28
SK-MEL-2 = system: SK-MEL-2
SK-MEL-5 = system: SK-MEL-5
SK-OV-3 = system: SK-OV-3
SN12C = system: SN12C
SNB-19 = system: SNB-19
SNB-75 = system: SNB-75
SR = system: SR
SW-620 = system: SW-620
TK-10 = system: TK-10
U-251 = system: U-251
UACC-257 = system: UACC-257
UACC-62 = system: UACC-62
UO-31 = system: UO-31
XF498 = system: XF498
CAKI-1 = system: CAKI-1
COLO 205 = system: COLO 205
DMS-273 = system: DMS-273
HOP-62 = system: HOP-62
OVCAR-4 = system: OVCAR-4

For `COC(=O)c1nc(N)nc(C(=O)OC)c1C(=O)c1ccccc1`, the GI50 (786-0) was > 100 µM (inactive), the GI50 (A498) was > 100 µM (inactive) and the GI50 (A549) was > 100 µM (inactive). For the same compound, the GI50 (ACHN) was > 100 µM (inactive), the GI50 (CCRF-CEM) was > 100 µM (inactive) and the GI50 (DLD-1) was > 100 µM (inactive). For the same compound, the GI50 (DMS-114) was > 100 µM (inactive), the GI50 (EKVX) was > 100 µM (inactive) and the GI50 (HCC 2998) was > 100 µM (inactive). The GI50 (HCT-116) was > 100 µM (inactive), the GI50 (HCT-15) was > 100 µM and the GI50 (HL-60) was > 100 µM (inactive). For the same compound, the GI50 (HOP-18) was > 100 µM (inactive), the GI50 (HOP-92) was 96.8 µM (inactive) and the GI50 (HT-29) was > 100 µM (inactive). For the same compound, the GI50 (IGROV-1) was > 100 µM (inactive), the GI50 (K562) was > 100 µM (inactive) and the GI50 (KM-20L2) was > 100 µM (inactive). The GI50 (KM12) was > 100 µM (inactive), the GI50 (LOX IMVI) was > 100 µM (inactive) and the GI50 (LXFL 529) was > 100 µM (inactive). The GI50 (M14) was > 100 µM (inactive), the GI50 (M19-MEL) was > 100 µM (inactive) and the GI50 (MOLT-4) was > 100 µM (inactive). For the same compound, the GI50 (Malme-3M) was > 100 µM (inactive), the GI50 (NCI-H23) was > 100 µM (inactive) and the GI50 (NCI-H460) was > 100 µM (inactive). For the same compound, the GI50 (NCI-H522) was > 100 µM (inactive), the GI50 (OVCAR-3) was > 100 µM (inactive) and the GI50 (OVCAR-5) was > 100 µM (inactive). For the same compound, the GI50 (OVCAR-8) was > 100 µM (inactive), the GI50 (RPMI-8226) was > 100 µM (inactive) and the GI50 (RXF 393) was > 100 µM (inactive). For the same compound, the GI50 (RXF 631) was > 100 µM (inactive), the GI50 (SF-268) was > 100 µM (inactive) and the GI50 (SF-295) was > 100 µM (inactive). For the same compound, the GI50 (SF-539) was > 100 µM (inactive), the GI50 (SK-MEL-28) was > 100 µM (inactive) and the GI50 (SK-MEL-2) was > 100 µM (inactive). For the same compound, the GI50 (SK-MEL-5) was > 100 µM (inactive), the GI50 (SK-OV-3) was > 100 µM (inactive) and the GI50 (SN12C) was > 100 µM (inactive). For the same compound, the GI50 (SNB-19) was > 100 µM (inactive), the GI50 (SNB-75) was 54.1 µM (inactive) and the GI50 (SR) was > 100 µM (inactive). The GI50 (SW-620) was > 100 µM (inactive), the GI50 (TK-10) was > 100 µM (inactive) and the GI50 (U-251) was > 100 µM (inactive). The GI50 (UACC-257) was > 100 µM (inactive), the GI50 (UACC-62) was > 100 µM (inactive) and the GI50 (UO-31) was > 100 µM (inactive). For the same compound, the GI50 (XF498) was > 100 µM (inactive).
In the case of `COC(=O)CCC(=O)NC1C2CC3CC(C2)CC1C3` (stereo not drawn), the GI50 (786-0) is reported as > 100 µM (inactive), the GI50 (A498) is reported as > 100 µM (inactive) and the GI50 (A549) is reported as > 100 µM (inactive). For the same compound, the GI50 (ACHN) was > 100 µM (inactive), the GI50 (CAKI-1) was > 100 µM (inactive) and the GI50 (CCRF-CEM) was > 100 µM (inactive). The GI50 (COLO 205) was > 100 µM (inactive), the GI50 (DLD-1) was > 100 µM (inactive) and the GI50 (DMS-114) was > 100 µM (inactive). The GI50 (DMS-273) was > 100 µM (inactive), the GI50 (EKVX) was > 100 µM (inactive) and the GI50 (HCC 2998) was > 100 µM (inactive). The GI50 (HCT-116) was > 100 µM (inactive), the GI50 (HCT-15) was > 100 µM and the GI50 (HL-60) was > 100 µM (inactive). For the same compound, the GI50 (HOP-18) was > 100 µM (inactive), the GI50 (HOP-62) was > 100 µM (inactive) and the GI50 (HOP-92) was > 100 µM (inactive). The GI50 (HT-29) was > 100 µM (inactive), the GI50 (IGROV-1) was > 100 µM (inactive) and the GI50 (K562) was > 100 µM (inactive). For the same compound, the GI50 (KM-20L2) was > 100 µM (inactive), the GI50 (KM12) was > 100 µM (inactive) and the GI50 (LOX IMVI) was > 100 µM (inactive). The GI50 (LXFL 529) was > 100 µM (inactive), the GI50 (M14) was > 100 µM (inactive) and the GI50 (M19-MEL) was > 100 µM (inactive). The GI50 (MOLT-4) was > 100 µM (inactive), the GI50 (Malme-3M) was > 100 µM (inactive) and the GI50 (NCI-H23) was > 100 µM (inactive). For the same compound, the GI50 (NCI-H460) was > 100 µM (inactive), the GI50 (NCI-H522) was > 100 µM (inactive) and the GI50 (OVCAR-3) was > 100 µM (inactive). The GI50 (OVCAR-4) was > 100 µM (inactive), the GI50 (OVCAR-5) was > 100 µM (inactive) and the GI50 (OVCAR-8) was > 100 µM (inactive). For the same compound, the GI50 (RPMI-8226) was > 100 µM (inactive), the GI50 (RXF 393) was > 100 µM (inactive) and the GI50 (RXF 631) was > 100 µM (inactive). The GI50 (SF-268) was > 100 µM (inactive), the GI50 (SF-295) was > 100 µM (inactive) and the GI50 (SF-539) was > 100 µM (inactive). The GI50 (SK-MEL-28) was > 100 µM (inactive), the GI50 (SK-MEL-2) was > 100 µM (inactive) and the GI50 (SK-MEL-5) was > 100 µM (inactive). For the same compound, the GI50 (SK-OV-3) was > 100 µM (inactive), the GI50 (SN12C) was > 100 µM (inactive) and the GI50 (SNB-19) was > 100 µM (inactive). The GI50 (SNB-75) was > 43.1 µM (inactive), the GI50 (SW-620) was > 100 µM (inactive) and the GI50 (TK-10) was > 100 µM (inactive). For the same compound, the GI50 (U-251) was > 100 µM (inactive), the GI50 (UACC-257) was > 100 µM (inactive) and the GI50 (UACC-62) was > 100 µM (inactive). The GI50 (UO-31) was > 100 µM (inactive) and the GI50 (XF498) was > 100 µM (inactive).
